The values below come from paper PMC5418947 (The Open Medicinal Chemistry Journal, 2017).

Assay [1] concerns the target TcAChE (from electric eel) (Electrophorus electricus, UniProt O42275). Briefly: Cholinesterase assay. In kind it is biochemical.
The nature of assay [2]: DPPH free radical scavenging. The class given is physicochemical. Conditions: read-out: DPPH IC50; 0.1 mM DPPH in methanol, 30 min, room temperature, 517 nm. (The DPPH test is a chemical assay of radical scavenging.)
In assay [3] the target is eqBuChE (from equine serum) (Equus caballus, UniProt P81908). Description: biochemical. The class given is biochemical.

pIC50: −log10 of the molar value. Read-outs that look alike come from different tables or passages of the source. Bounds are passed on as bounds.

Sequence of eqBuChE (from equine serum) (P81908 whole entry): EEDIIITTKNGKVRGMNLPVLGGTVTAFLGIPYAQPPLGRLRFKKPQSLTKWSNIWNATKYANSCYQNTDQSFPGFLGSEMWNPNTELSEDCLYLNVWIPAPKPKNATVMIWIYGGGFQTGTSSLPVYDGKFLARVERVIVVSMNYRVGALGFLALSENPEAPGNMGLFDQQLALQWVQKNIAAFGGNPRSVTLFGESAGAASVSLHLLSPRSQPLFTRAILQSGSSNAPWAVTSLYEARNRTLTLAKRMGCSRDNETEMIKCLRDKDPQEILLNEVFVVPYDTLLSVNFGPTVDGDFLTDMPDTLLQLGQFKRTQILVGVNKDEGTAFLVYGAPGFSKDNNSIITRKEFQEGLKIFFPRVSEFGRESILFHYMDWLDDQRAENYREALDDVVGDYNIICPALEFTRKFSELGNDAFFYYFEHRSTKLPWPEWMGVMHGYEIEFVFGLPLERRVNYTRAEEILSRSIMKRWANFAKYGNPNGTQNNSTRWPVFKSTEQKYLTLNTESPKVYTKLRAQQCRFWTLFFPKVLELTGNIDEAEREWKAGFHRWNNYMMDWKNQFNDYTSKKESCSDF
Sequence of TcAChE (from electric eel) (O42275 24-633): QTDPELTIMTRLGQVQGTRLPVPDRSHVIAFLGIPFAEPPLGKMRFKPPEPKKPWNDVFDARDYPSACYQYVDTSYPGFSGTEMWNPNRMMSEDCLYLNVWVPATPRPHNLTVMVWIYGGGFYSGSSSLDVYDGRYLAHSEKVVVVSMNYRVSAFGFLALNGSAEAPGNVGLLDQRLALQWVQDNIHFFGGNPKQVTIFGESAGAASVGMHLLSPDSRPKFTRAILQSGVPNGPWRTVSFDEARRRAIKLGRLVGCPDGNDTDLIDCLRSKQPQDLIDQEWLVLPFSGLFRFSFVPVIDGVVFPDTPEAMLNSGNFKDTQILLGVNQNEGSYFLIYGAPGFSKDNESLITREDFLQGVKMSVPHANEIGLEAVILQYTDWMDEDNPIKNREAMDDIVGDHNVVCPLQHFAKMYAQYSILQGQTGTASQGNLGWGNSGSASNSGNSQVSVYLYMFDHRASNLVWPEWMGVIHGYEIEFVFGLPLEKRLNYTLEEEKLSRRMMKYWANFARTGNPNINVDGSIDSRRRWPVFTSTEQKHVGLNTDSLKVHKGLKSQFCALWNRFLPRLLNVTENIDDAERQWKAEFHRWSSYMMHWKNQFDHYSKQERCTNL

One may read the pIC50 as −log10 of the IC50, conventionally taken in molar units. In the case of `Cc1c(C)c2c(c(C)c1O)CCC(C)(C(=O)NCCCCCCNc1c3c(nc4ccccc14)CCCC3)O2` (stereo not drawn) [Compound 8d, 6-Hydroxy-2,5,7,8-tetramethyl-N-{6-[(1,2,3,4-tetrahydroacridin-9-yl)amino]hexyl}-3,4-dihydro-2H-1-benzopyran-2-carboxamide], the pIC50 in assay [1] was 7.31. Besides, the pIC50 in assay [2] is 4.90. For the same compound, in assay [3], the “BuChE inhibitor activity, fold higher than tacrine” value was “more than 3 fold”; the “BuChE selectivity index (SI) = IC50(TcAChE)/IC50(eqBuChE)” value (“BuChE selectivity index” for short) worked out at 10.40; the pIC50 is 8.32.

For `c1ccc2c(NCCCCCCCN3CCc4c([nH]c5ccccc45)C3)c3c(nc2c1)CCCC3` [Compound 14, N-(7-(3,4-dihydro-1H-pyrido[3,4-b]indol-2(9H)-yl)heptyl)-1,2,3,4-tetrahydroacridin-9-amine], the pIC50 in assay [2] was 3.89; in assay [3], 8.50. Moreover, in assay [3] (ratio of IC50 values), the “BuChE selectivity index” value was 5.49. The “BuChE inhibitor activity, fold higher than tacrine” value in assay [3] (relative to tacrine) is listed as “more than 3 fold”.

Turning to `Cc1c(C)c2c(c(C)c1O)CCC(C)(C(=O)NCCNc1c3c(nc4ccccc14)CCCC3)O2` (stereo not drawn) [Compound 8a, 6-Hydroxy-2,5,7,8-tetramethyl-N-{2-[(1,2,3,4-tetrahydroacridin-9-yl)amino]ethyl}-3,4-dihydro-2H-1-benzopyran-2-carboxamide], the pIC50 in assay [1] was 5.82; in assay [2] it was 4.34; in assay [3], 6.89. In assay [3], the “BuChE selectivity index” value came out at 11.87.

Regarding `Cc1c(C)c2c(c(C)c1O)CCC(C)(C(=O)O)O2` (stereo not drawn) [Trolox, reference compound], the pIC50 in assay [2] is 4.76.

On to `c1ccc2c3c([nH]c2c1)CN(CCN1CCc2c([nH]c4ccccc24)C1)CC3` [Compound 16, 1,2-Bis(3,4-dihydro-1H-pyrido[3,4-b]indol-2(9H)-yl)ethane], for which the pIC50 in assay [1] was less than 4.00; in assay [2] it was 3.90; in assay [3] it was 5.77. For the same compound, the “AChE inhibitory activity (in words)” value in assay [1] (Ellman's method) is “no inhibitory activity”. Further, in assay [3] (ratio of IC50 values), the “BuChE selectivity index” value is more than 58.88.

As to `Cc1c(C)c2c(c(C)c1O)CCC(C)(C(=O)NCCCNc1c3c(nc4ccccc14)CCCC3)O2` (stereo not drawn) [Compound 8b, 6-Hydroxy-2,5,7,8-tetramethyl-N-{3-[(1,2,3,4-tetrahydroacridin-9-yl)amino]propyl}-3,4-dihydro-2H-1-benzopyran-2-carboxamide], the results for the pIC50 in assay [1], in assay [2] and in assay [3] were 5.82, 4.94 and 7.90, respectively. In addition, the “BuChE selectivity index” value in assay [3] (ratio of IC50 values) stood at 121.62.

As to `Cc1c(C)c2c(c(C)c1O)CCC(C)(C(=O)NCCCCNc1c3c(nc4ccccc14)CCCC3)O2` (stereo not drawn) [Compound 8c, 6-Hydroxy-2,5,7,8-tetramethyl-N-{4-[(1,2,3,4-tetrahydroacridin-9-yl)amino]butyl}-3,4-dihydro-2H-1-benzopyran-2-carboxamide], the pIC50 in assay [1] was 5.66; in assay [2] it was 4.84; in assay [3] it was 7.95. The “BuChE selectivity index” value in assay [3] is given as 196.07.
